Measured values as given in patent EP2327700A1, “Dialkyl triazinamines and use thereof for combating undesired plant growth” (Bayer CropScience AG, priority 2009, dated 2011).
Each block holds one compound with its values, some of them ahead of it.

Experiments:
[1] = system: Lolium multiflorum; assay: Herbicidal action pre-emergence (greenhouse pot test); assay type: in vivo; conditions: 320 g/ha, visual rating after 3 weeks vs untreated controls
Excerpt: (§1) • 1. Herbizide Wirkung bzw. Kulturpflanzenverträglichkeit im Vorauflauf Samen von mono- bzw. dikotylen Unkraut- bzw. Kulturpflanzen werden in Holzfasertöpfen in sandiger Lehmerde ausgelegt und mit Erde abgedeckt. Die in Form von benetzbaren Pulvern (WP) oder als Emulsionskonzentrate (EC) formulierten erfindungsgemäßen Verbindungen werden dann als wäßrige Suspension bzw. Emulsion mit einer Wasseraufwandmenge von umgerechnet 600 bis 800 I/ha unter Zusatz von 0,2% Netzmittel auf die Oberfläche der Abdeckerde appliziert. Nach der Behandlung werden die Töpfe im Gewächshaus aufgestellt und unter guten Wachstumsbedingungen für die Testpflanzen gehalten. Die visuelle Bonitur der Schäden an den Versuchspflanzen erfolgt nach einer Versuchszeit von 3 Wochen im Vergleich zu unbehandelten Kontrollen (herbizide Wirkung in Prozent (%): 100% Wirkung = Pflanzen sind abgestorben, 0 % Wirkung = wie Kontrollpflanzen). Dabei zeigen beispielsweise die Verbindungen Nr. I-16, I-17, I-48, I-50, I-51, I-52, I-54 und I-63 bei einer Aufwandmenge von 320 g/ha jeweils eine mindestens 80%-ige Wirkung gegen Lolium multiflorum, Setaria viridis und Stellaria media. Die Verbindungen Nr. I-64, I-65, I-66, I-68, I-69 und I-70 zeigen bei einer Aufwandmenge von 320 g/ha jeweils eine mindestens 80%-ige Wirkung gegen Amaranthus retroflexus, Pharbitis purpureumund Veronica persica. • 2. Herbizide Wirkung bzw. Kulturpflanzenverträglichkeit im Nachauflauf Samen von mono- bzw. dikotylen Unkraut- bzw. Kulturpflanzen werden in Holzfasertöpfen in sandigem Lehmboden ausgelegt, mit Erde abgedeckt und im Gewächshaus unter guten Wachstumsbedingungen angezogen. 2 bis 3 Wochen nach der Aussaat werden die Versuchspflanzen im Einblattstadium behandelt. Die in Form von benetzbaren Pulvern (WP) oder als Emulsionskonzentrate (EC) formulierten erfindungsgemäßen Verbindungen werden dann als wäßrige Suspension bzw. Emulsion mit einer Wasseraufwandmenge von umgerechnet 600 bis 800 I/ha unter Zusatz von 0,2% Netzmittel auf die grünen Pflanzenteile gesprüht. Nach ca. 3 Wochen Standzeit der Versuchspflanzen im Gewächshaus unter optimalen Wachstumsbedingungen wird die Wirkung der Präparate visuell im Vergleich zu unbehandelten Kontrollen bonitiert (herbizide Wirkung in Prozent (%): 100% Wirkung = Pflanzen sind abgestorben, 0 % Wirkung = wie Kontrollpflanzen). Dabei zeigen beispielsweise die Verbindungen Nr. I-50, I-52, I-54 und I-64 bei einer Aufwandmenge von 320 g/ha jeweils eine mindestens 80%-ige Wirkung gegen Alopecurus myosuroides, Setaria viridis und Stellaria media. Die Verbindungen Nr. I-51, I-63, I-66, I-69 und I-70 zeigen bei einer Aufwandmenge von 320 g/ha jeweils eine mindestens 80%-ige Wirkung gegen Alopecurus myosuroides, Veronica persica und Viola tricolor.

[2] = system: Setaria viridis; assay: as above; assay type: in vivo; conditions: 320 g/ha, visual rating after 3 weeks vs untreated controls
Excerpt: as §1

[3] = system: Stellaria media; assay: as above; assay type: in vivo; conditions: 320 g/ha, visual rating after 3 weeks vs untreated controls
Excerpt: as §1

[4] = logp (HCOOH) determination; assay type: physicochemical
[5] = system: Alopecurus myosuroides; assay: Herbicidal action post-emergence (greenhouse pot test); assay type: in vivo; conditions: 320 g/ha, visual rating after ca. 3 weeks vs untreated controls
Excerpt: as §1

[6] = system: Setaria viridis; assay: as above; assay type: in vivo; conditions: 320 g/ha, visual rating after ca. 3 weeks vs untreated controls
Excerpt: as §1

[7] = system: Stellaria media; assay: as above; assay type: in vivo; conditions: 320 g/ha, visual rating after ca. 3 weeks vs untreated controls
Excerpt: as §1

[8] = system: Veronica persica; assay: as above; assay type: in vivo; conditions: 320 g/ha, visual rating after ca. 3 weeks vs untreated controls
Excerpt: as §1

[9] = system: Viola tricolor; assay: as above; assay type: in vivo; conditions: 320 g/ha, visual rating after ca. 3 weeks vs untreated controls
Excerpt: as §1

[10] = system: Veronica persica; assay: Herbicidal action pre-emergence (greenhouse pot test); assay type: in vivo; conditions: 320 g/ha, visual rating after 3 weeks vs untreated controls
Excerpt: as §1

[11] = system: Amaranthus retroflexus; assay: as above; assay type: in vivo; conditions: 320 g/ha, visual rating after 3 weeks vs untreated controls
Excerpt: as §1

[12] = system: Pharbitis purpureum; assay: as above; assay type: in vivo; conditions: 320 g/ha, visual rating after 3 weeks vs untreated controls
Excerpt: as §1

Structure (SMILES): Cc1cc(C)c2c(c1)C(Nc1nc(C)nc(C)n1)CCC2 (stereo not drawn) [I-17, N2-(5,7-Dimethyl-1,2,3,4-tetrahydro-1-naphthalenyl)-4,6-dimethyl-1,3,5-triazin-2-amine]
herbizide Wirkung in Prozent (%) [1]: ≥ 80%
herbizide Wirkung in Prozent (%) [2]: ≥ 80%
herbizide Wirkung in Prozent (%) [3]: ≥ 80%

Structure (SMILES): Cc1ccc2c(c1)[C@H](Nc1nc(C)nc(C(C)C)n1)[C@@H](C)C2 [I-50]
herbizide Wirkung in Prozent (%) [1]: ≥ 80%
herbizide Wirkung in Prozent (%) [2]: ≥ 80%
herbizide Wirkung in Prozent (%) [3]: ≥ 80%
chromatographic logP ([4]; hcooh): 2.16
herbizide Wirkung in Prozent (%) [5]: ≥ 80%
herbizide Wirkung in Prozent (%) [6]: ≥ 80%
herbizide Wirkung in Prozent (%) [7]: ≥ 80%

Structure (SMILES): CCc1nc(C)nc(N[C@H]2c3cc(C)ccc3C[C@@H]2C)n1 [I-52]
herbizide Wirkung in Prozent (%) [1]: ≥ 80%
herbizide Wirkung in Prozent (%) [2]: ≥ 80%
herbizide Wirkung in Prozent (%) [3]: ≥ 80%
chromatographic logP ([4]; hcooh): 1.85
herbizide Wirkung in Prozent (%) [5]: ≥ 80%
herbizide Wirkung in Prozent (%) [6]: ≥ 80%
herbizide Wirkung in Prozent (%) [7]: ≥ 80%

Structure (SMILES): Cc1ccc2c(c1)[C@H](Nc1nc(C)nc(C(F)F)n1)[C@@H](C)C2 [I-64]
herbizide Wirkung in Prozent (%) [10]: ≥ 80%
herbizide Wirkung in Prozent (%) [11]: ≥ 80%
herbizide Wirkung in Prozent (%) [12]: ≥ 80%
chromatographic logP ([4]; hcooh): 3.44
herbizide Wirkung in Prozent (%) [5]: ≥ 80%
herbizide Wirkung in Prozent (%) [6]: ≥ 80%
herbizide Wirkung in Prozent (%) [7]: ≥ 80%

Structure (SMILES): Cc1ccc2c(c1)[C@H](Nc1nc(C)nc(C(F)(F)Cl)n1)[C@@H](C)C2 [I-66]
herbizide Wirkung in Prozent (%) [10]: ≥ 80%
herbizide Wirkung in Prozent (%) [11]: ≥ 80%
herbizide Wirkung in Prozent (%) [12]: ≥ 80%
chromatographic logP ([4]; hcooh): 4.36
herbizide Wirkung in Prozent (%) [8]: ≥ 80%
herbizide Wirkung in Prozent (%) [5]: ≥ 80%
herbizide Wirkung in Prozent (%) [9]: ≥ 80%

Structure (SMILES): Cc1nc(N[C@@H]2CCCc3ccccc32)nc(C(F)(F)Cl)n1 [I-67]
chromatographic logP ([4]; hcooh): 3.9

Structure (SMILES): Cc1ccc2c(c1)[C@H](Nc1nc(C)nc(C(Cl)Cl)n1)[C@@H](C)C2 [I-69]
herbizide Wirkung in Prozent (%) [10]: ≥ 80%
herbizide Wirkung in Prozent (%) [11]: ≥ 80%
herbizide Wirkung in Prozent (%) [12]: ≥ 80%
chromatographic logP ([4]; hcooh): 4.13
herbizide Wirkung in Prozent (%) [8]: ≥ 80%
herbizide Wirkung in Prozent (%) [5]: ≥ 80%
herbizide Wirkung in Prozent (%) [9]: ≥ 80%

Structure (SMILES): Cc1ccc2c(c1)[C@H](Nc1nc(C)nc(C(Cl)(Cl)Cl)n1)[C@@H](C)C2 [I-70, N-[(1R,2S)-2,6-Dimethyl-2,3-dihydro-1H-inden-1-yl]-4-methyl-6-(trichloromethyl)-1,3,5-triazin-2-amin]
herbizide Wirkung in Prozent (%) [10]: ≥ 80%
herbizide Wirkung in Prozent (%) [11]: ≥ 80%
herbizide Wirkung in Prozent (%) [12]: ≥ 80%
chromatographic logP ([4]; HCOOH (formic acid)): 4.85
herbizide Wirkung in Prozent (%) [8]: ≥ 80%
herbizide Wirkung in Prozent (%) [5]: ≥ 80%
herbizide Wirkung in Prozent (%) [9]: ≥ 80%

Structure (SMILES): Cc1nc(N[C@@H]2CCCc3ccccc32)nc(C(Cl)(Cl)Cl)n1 [I-71]
chromatographic logP ([4]; hcooh): 4.4

Structure (SMILES): Cc1nc(C)nc(N[C@@H]2CCCc3ccccc32)n1 [I-78, 4,6-Dimethyl-N-[(1R)-1,2,3,4-tetrahydronaphthalen-1-yl]-1,3,5-triazin-2-amine]
chromatographic logP ([4]; HCOOH (formic acid)): 1.35

Structure (SMILES): Cc1nc(N[C@H]2c3cc(Br)ccc3C[C@@H]2C)nc(C(F)(F)Cl)n1 [I-81]
chromatographic logP ([4]; hcooh): 3.8

Structure (SMILES): Cc1nc(N[C@@H]2CCOc3ccccc32)nc(C(F)(F)Cl)n1 [I-84]
chromatographic logP ([4]; hcooh): 3.11

Structure (SMILES): Cc1ccc2c(c1)[C@H](Nc1nc(C)nc(C(F)(F)F)n1)[C@@H](C)C2 [I-87]
chromatographic logP ([4]; hcooh): 4.21

Structure (SMILES): Cc1nc(NC2CC(C)(C)Oc3cc(Cl)c(F)cc32)nc(C(F)F)n1 (stereo not drawn) [I-95]
chromatographic logP ([4]; hcooh): 4.32

Structure (SMILES): Cc1nc(NC2CCc3ccc(C(C)C)cc32)nc(C(F)F)n1 (stereo not drawn) [I-100]
chromatographic logP ([4]; hcooh): 3.79

Structure (SMILES): CCOc1ccc2c(c1)C(Nc1nc(C)nc(C(F)F)n1)CCC2 (stereo not drawn) [I-122]
chromatographic logP ([4]; hcooh): 3.34

Structure (SMILES): Cc1ccc2c(c1)OC(C)(C)CC2Nc1nc(C)nc(C(F)F)n1 (stereo not drawn) [I-130]
chromatographic logP ([4]; hcooh): 3.3

Structure (SMILES): CCc1ccc2c(c1)C(Nc1nc(C)nc(C(F)F)n1)CCO2 (stereo not drawn) [I-134]
chromatographic logP ([4]; hcooh): 3.1

Structure (SMILES): CCc1ccc2c(c1)C(Nc1nc(C)nc(C(F)(F)F)n1)CCO2 (stereo not drawn) [I-135]
chromatographic logP ([4]; hcooh): 3.71

Structure (SMILES): Cc1nc(NC2c3ccc(Cl)cc3CC2C)nc(C(F)F)n1 (stereo not drawn) [I-137]
chromatographic logP ([4]; hcooh): 3.58

Structure (SMILES): Cc1nc(NC2CCc3c(C)cccc32)nc(C(F)(F)Cl)n1 (stereo not drawn) [I-147]
chromatographic logP ([4]; hcooh): 3.98

Structure (SMILES): COc1ccc2c(c1)CCCC2Nc1nc(C)nc(C(F)F)n1 (stereo not drawn) [I-159]
chromatographic logP ([4]; hcooh): 2.9

Structure (SMILES): Cc1nc(C)nc(NC2CCc3c(C)cccc32)n1 (stereo not drawn) [I-168, 4,6-Dimethyl-N-(4-methyl-2,3-dihydro-1H-inden-1-yl)-1,3,5-triazin-2-amine]
chromatographic logP ([4]; HCOOH (formic acid)): 1.36

Second part, led by results:

chromatographic logP ([4]; hcooh): 3.56
Structure (SMILES): Cc1ccc2c(c1)[C@H](Nc1nc(C)nc(C(C)(C)C)n1)[C@@H](C)C2 [I-51]
herbizide Wirkung in Prozent (%) [1]: ≥ 80%
herbizide Wirkung in Prozent (%) [2]: ≥ 80%
herbizide Wirkung in Prozent (%) [3]: ≥ 80%
herbizide Wirkung in Prozent (%) [8]: ≥ 80%
herbizide Wirkung in Prozent (%) [5]: ≥ 80%
herbizide Wirkung in Prozent (%) [9]: ≥ 80%

chromatographic logP ([4]; hcooh): 1.48
Structure (SMILES): CCc1nc(C)nc(N[C@@H]2CCCc3ccccc32)n1 [I-53]

chromatographic logP ([4]; HCOOH (formic acid)): 2.16
Structure (SMILES): COCc1nc(C)nc(N[C@H]2c3cc(C)ccc3C[C@@H]2C)n1 [I-54, N-[(1R,2S)-2,6-Dimethyl-2,3-dihydro-1H-inden-1-yl]-4-(methoxymethyl)-6-methyl-1,3,5-triazin-2-amin]
herbizide Wirkung in Prozent (%) [1]: ≥ 80%
herbizide Wirkung in Prozent (%) [2]: ≥ 80%
herbizide Wirkung in Prozent (%) [3]: ≥ 80%
herbizide Wirkung in Prozent (%) [5]: ≥ 80%
herbizide Wirkung in Prozent (%) [6]: ≥ 80%
herbizide Wirkung in Prozent (%) [7]: ≥ 80%

chromatographic logP ([4]; hcooh): 1.59
Structure (SMILES): Cc1ccc2c(c1)[C@H](Nc1nc(C)nc(C)n1)[C@@H](C)C2 [I-63]
herbizide Wirkung in Prozent (%) [1]: ≥ 80%
herbizide Wirkung in Prozent (%) [2]: ≥ 80%
herbizide Wirkung in Prozent (%) [3]: ≥ 80%
herbizide Wirkung in Prozent (%) [8]: ≥ 80%
herbizide Wirkung in Prozent (%) [5]: ≥ 80%
herbizide Wirkung in Prozent (%) [9]: ≥ 80%

chromatographic logP ([4]; hcooh): 4.32
Structure (SMILES): Cc1nc(NC2CC(C)(C)Oc3cc(Cl)c(F)cc32)nc(C(F)(F)Cl)n1 (stereo not drawn) [I-82]

chromatographic logP ([4]; hcooh): 3.06
Structure (SMILES): Cc1nc(N[C@@H]2CCOc3c(F)cccc32)nc(C(F)(F)Cl)n1 [I-83]

chromatographic logP ([4]; hcooh): 2.69
Structure (SMILES): Cc1nc(N[C@@H]2CCc3ccccc32)nc(C(F)F)n1 [I-91]

chromatographic logP ([4]; hcooh): 3.41
Structure (SMILES): Cc1nc(NC2CCOc3ccc(C(C)C)cc32)nc(C(F)F)n1 (stereo not drawn) [I-125]

chromatographic logP ([4]; hcooh): 3.55
Structure (SMILES): Cc1nc(N[C@H]2c3cc(Br)ccc3C[C@@H]2C)nc(C(F)F)n1 [I-235, N-[trans-6-Brom-2-methyl-2,3-dihydro-1H-inden-1-yl]-4-(difluoromethyl)-6-methyl-1,3,5-triazin-2-amin]

chromatographic logP ([4]; hcooh): 2.93
Structure (SMILES): COc1ccc2c(c1)C(Nc1nc(C)nc(C(F)(F)F)n1)CCO2 (stereo not drawn) [I-237]

chromatographic logP ([4]; hcooh): 1.51
Structure (SMILES): CCc1ccc2c(c1)C(Nc1nc(C)nc(C)n1)CCO2 (stereo not drawn) [I-238]
